One compound from patent publication US8420865B2, “Phosphine compound, process for producing the same, and peroxide scavenger using the same” (Fukuoka University, priority 2008, dated 2013) can be followed below.

Experiment [1] concerns HepG2 cells. Put plainly: Oxidation of MitoDPPP loaded into HepG2 cells, hydrogen peroxide compared with tBHP, microplate reader. The experiment is classed as cell-based. The settings on record: MitoDPPP 16 μM loaded 10 minutes, FIG. 4. The method, then:
The oxidation of MitoDPPP loaded into HepG2 cells was compared for hydrogen peroxide and tBHP. A 0.1% dimethylsulfoxide solution of MitoDPPP (16 μM) was prepared. The solution was loaded into HepG2 cells for 10 minutes. After washing the cells with PBS, hydrogen peroxide was added to the cells and the increase in fluorescence intensity was monitored on a microplate reader.

In experiment [2] the test system is HepG2 cells. Put plainly: Loading of MitoDPPP into HepG2 cells, fluorescence microscopy, comparison with Mito Tracker Green FM. The experiment is classed as cell-based. The conditions noted are these: fluorescence microscope, comparison/double-staining with mitochondria-selective fluorescent dye, FIG. 2. The method, then:
Loading of MitoDPPP into HepG2 cells was examined. A 20% dimethylsulfoxide solution of MitoDPPP (16 μM) was prepared and the solution was loaded into HepG2 cells for 10 minutes to stain the cells. After washing with PBS, the cells were observed under a fluorescence microscope.

Experiment [3] is described as follows: Oxidation of MitoDPPP with hydrogen peroxide in dimethylsulfoxide solution, fluorescence intensity over time. The settings on record: MitoDPPP 16 μM in dimethylsulfoxide, 10 mM H2O2, 10 minutes, FIG. 1. The method, then:
The time scale changes in fluorescence intensity were monitored for the oxidation with hydrogen peroxide of [3-(4-Phenoxyphenylphosphinopyrenylphosphino)propyl]triphenylphosphonium iodide [Ia] (MitoDPPP) obtained in EXAMPLE 1.
After 10 mM H2O2 was added dropwise to a dimethylsulfoxide solution of MitoDPPP (16 μM), fluorescence intensities at the fluorescence wavelength of 380 nm were measured for 10 minutes.

Experiment [4] relates to HepG2 cells. Put plainly: Loading into HepG2 cells and oxidation stimulated with tert-butoxyhydroperoxide (tBHP), fluorescence microscopy. The experiment is classed as cell-based. The conditions noted are these: MitoDPPP 16 μM loaded 2 minutes, ten minutes after tBHP, FIG. 3. The method, then:
Loading of MitoDPPP into HepG2 cells and oxidation stimulated with tert-butoxyhydroperoxide (tBHP) were monitored. A 0.1% dimethylsulfoxide solution of MitoDPPP (16 μM) was prepared. The solution was loaded into HepG2 cells for 2 minutes to stain the cells. The cells were washed with PBS and observed under a fluorescence microscope. Next, tert-butoxyhydroperoxide (tBHP) was added to the cells. Ten minutes later, the cells were observed under the fluorescence microscope.

The nature of experiment [5]: Oxidation of MitoDPPP in an aqueous solution with hydrogen peroxide and tBHP. The settings on record: FIG. 4.

On to `[I-].c1ccc(Oc2ccc(P(CCC[P+](c3ccccc3)(c3ccccc3)c3ccccc3)c3ccc4ccc5cccc6ccc3c4c56)cc2)cc1` (stereo not drawn) [MitoDPPP], for which, in the experiment on HepG2 cells [1], the “oxidation with hydrogen peroxide of MitoDPPP loaded into HepG2 cells” value is “not oxidized”. Moreover, the localization in cells result with HepG2 cells [2] is given as “localized in mitochondria”. Further, the “fluorescence intensity at the fluorescence wavelength of 380 nm on oxidation with hydrogen peroxide” value in experiment [3] is listed as “increase in the fluorescence intensity”. Also, in the experiment with HepG2 cells [4], the “brightness of stained cells after tBHP loading compared to before” value was “increased”. The “oxidation with hydrogen peroxide in an aqueous solution” value in experiment [5] (hydrogen peroxide) is “proceeds rapidly”. Besides, the “oxidation with tBHP in an aqueous solution” value in experiment [5] (tBHP) was “proceeds rapidly”.
